Measured values taken from US11964938B2, “3-phenyl-4-hexynoic acid derivatives as GPR40 agonists” (CELON PHARMA S.A., priority 2018, dated 2024).
pIC50: −log10 of the molar value. Counter-ions that a name gives are not always drawn.

Columns and labels:
Type in all cases: cell-based
[1] = target: T1, OAT1 (Homo sapiens, UniProt Q4U2R8); assay: Uptake transporter inhibition assay, OAT1; details: HEK293 cells overexpressing transporter
T1 construct: host or cells: HEK293
T1 sequence (Q4U2R8 1-563): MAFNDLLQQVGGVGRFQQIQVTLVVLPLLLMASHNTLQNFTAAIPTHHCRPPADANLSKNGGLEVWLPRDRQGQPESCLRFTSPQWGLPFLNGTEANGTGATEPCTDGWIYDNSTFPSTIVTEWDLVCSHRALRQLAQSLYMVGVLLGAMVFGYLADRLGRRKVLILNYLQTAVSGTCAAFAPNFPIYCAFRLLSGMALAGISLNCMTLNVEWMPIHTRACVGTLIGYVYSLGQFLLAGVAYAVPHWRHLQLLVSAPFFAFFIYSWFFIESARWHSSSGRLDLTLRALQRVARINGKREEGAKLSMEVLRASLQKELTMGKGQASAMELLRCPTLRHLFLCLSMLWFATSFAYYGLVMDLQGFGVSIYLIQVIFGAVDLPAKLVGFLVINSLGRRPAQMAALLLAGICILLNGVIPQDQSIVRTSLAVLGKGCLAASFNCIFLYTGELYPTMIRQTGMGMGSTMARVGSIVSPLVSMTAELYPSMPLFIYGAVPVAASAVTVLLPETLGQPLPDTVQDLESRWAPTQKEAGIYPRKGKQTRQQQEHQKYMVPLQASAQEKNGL
Experimental: (§1) Experiment B4: Bile Acid Transporters Inhibition in the Liver.
(§2) The compound was tested on a panel of 10 transporters: BSEP, MRP2, MRP3, MRP4 in a vesicular transport inhibition assay and NTCP, OAT1, OAT2v1, OATP1A2, OATP1B1, OATP1B3 in an uptake transporter inhibition assays.
(§3) Transporter uptake inhibition test was performed on mammal HEK293 cells overexpressing of a respective transporter. Cells were cultured at 37±1° C. and seeded on 96-well tissue culture plate at 1×10^5/well. Substrate was removed prior to experiment and cells were washed twice with 100 μl of respective buffer (HK pH 7.4 for OATP1B1 and HBSS pH 7.4 for NTCP, OAT1, OAT2v1, OATP1A2, and OATP1B3). Uptake studies were performed at 37±1° C. in 50 μl of respective buffer containing radioactively tagged substrate and tested compound or solvent.
(§4) After experiment cells were washed twice with 100 μl of ice-cold respective buffer and lysed with 50 μl of 0.1M NaOH. Transport of radioactively tagged substrate was determined by scintillation counter measurement.

[2] = target: T2, OAT2v1 (Homo sapiens, UniProt Q9Y694); assay: Uptake transporter inhibition assay, OAT2v1; details: HEK293 cells overexpressing transporter
T2 construct: host or cells: HEK293
T2 sequence (Q9Y694 1-546 isoform Q9Y694-2): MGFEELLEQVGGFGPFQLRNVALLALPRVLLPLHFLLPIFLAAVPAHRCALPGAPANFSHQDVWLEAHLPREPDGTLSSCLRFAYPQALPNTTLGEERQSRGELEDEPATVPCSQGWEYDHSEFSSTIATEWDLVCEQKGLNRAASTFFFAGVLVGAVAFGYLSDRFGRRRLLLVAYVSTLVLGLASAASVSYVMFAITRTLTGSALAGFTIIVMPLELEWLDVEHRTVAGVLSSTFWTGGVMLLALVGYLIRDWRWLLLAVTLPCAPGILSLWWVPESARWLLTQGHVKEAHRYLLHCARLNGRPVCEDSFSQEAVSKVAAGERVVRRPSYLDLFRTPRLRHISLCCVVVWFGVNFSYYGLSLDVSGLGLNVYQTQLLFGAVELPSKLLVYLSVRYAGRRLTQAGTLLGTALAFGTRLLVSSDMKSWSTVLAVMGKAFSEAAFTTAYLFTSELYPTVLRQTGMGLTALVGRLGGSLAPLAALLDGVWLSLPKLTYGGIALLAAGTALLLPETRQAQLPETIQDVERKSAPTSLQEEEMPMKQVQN
Experimental: as §1, §2, §3, §4

[3] = target: T3, NTCP (Homo sapiens, UniProt Q14973); assay: Uptake transporter inhibition assay, NTCP; details: HEK293 cells overexpressing transporter
T3 construct: host or cells: HEK293
T3 sequence (Q14973 1-349): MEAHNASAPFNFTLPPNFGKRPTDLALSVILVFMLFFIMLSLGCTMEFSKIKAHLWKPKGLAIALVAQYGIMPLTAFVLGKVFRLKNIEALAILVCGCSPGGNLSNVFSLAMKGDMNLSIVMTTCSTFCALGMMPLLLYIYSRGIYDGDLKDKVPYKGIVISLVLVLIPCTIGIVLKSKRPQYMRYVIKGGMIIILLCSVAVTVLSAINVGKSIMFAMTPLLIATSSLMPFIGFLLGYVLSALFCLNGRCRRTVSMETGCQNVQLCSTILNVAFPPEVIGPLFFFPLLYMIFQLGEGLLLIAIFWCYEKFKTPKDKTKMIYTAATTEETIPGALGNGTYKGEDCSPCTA
Experimental: as §1, §2, §3, §4

[4] = tested on: MIN6 (mouse insulinoma) cells; assay: Glucose-dependent insulin release in mouse insulinoma cells (MIN6); details: multiplicity of insulin efflux increase in relation to control; 10 uM compound, 20 mM glucose, 1 hour
Experimental: Experiment B2: Glucose-Dependent Insulin Release in Mouse Insulinoma Cells (MIN6).
MIN6 (mouse insulinoma) cells were seeded on a plate covered with PDL (poly-D-lysine) at 5×10^5/well and cultured for 48 hours. […] Tested compounds, after dilution to the concentration of 10-40 uM in KRBH buffer with the addition of 20 mM glucose, were added to the cells and incubated for 1 hour to induce insulin release. Negative control was KRBH buffer with the addition of 2 mM glucose. Concentration of released insulin was determined using ELISA test (Mercodia).
Table 4 present MIN6Insulin @10 uM values for representative compounds of the invention. MIN6Insulin @10 uM value is a multiplicity of insulin efflux increase in relation to control experiment, following addition of 10 uM of tested compound.

SMILES	pIC50 [1]	pIC50 [2]	pIC50 [3]	MIN6Insulin @10 uM [4]
CC#C[C@@H](CC(=O)O)c1ccc(OCC(C)=C(C)C)cc1 [Example S1, (3S)-3-{4-[(2,3-dimethylbut-2-en-1-yl)oxy]phenyl}hex-4-ynoic acid calcium salt]	3.61	< 3.52	4.33	–
Cc1cc(OCCCS(C)(=O)=O)cc(C)c1-c1cccc(COc2ccc3c(c2)OC[C@H]3CC(=O)O)c1 [Example R1, 2[(3S)-6-({3-[4-(3-methanesulfonylpropoxy)-2,6-dimethylphenyl]-phenyl}methoxy)-2,3-dihydro-1-benzofuran-3-yl]acetic acid, reference compound]	4.46	4.20	4.27	1.336
